For 1 compound, inhibition and EC50 results are on record in ChEMBL document CHEMBL1148572, “1-((S)-2-aminopropyl)-1H-indazol-6-ol: a potent peripherally acting 5-HT2 receptor agonist with ocular hypotensive activity” (J Med Chem, 2006).

Assay [1] can be described thus: Inhibitory activity at calcium activated potassium channel 6 at 1 nM.
The target of assay [2] is Platelet-activating factor receptor (Homo sapiens) (UniProt P25105). The assay is described as follows: Inhibition of PAF at 100 nM.
Chain of Platelet-activating factor receptor (Homo sapiens) (P25105 whole entry): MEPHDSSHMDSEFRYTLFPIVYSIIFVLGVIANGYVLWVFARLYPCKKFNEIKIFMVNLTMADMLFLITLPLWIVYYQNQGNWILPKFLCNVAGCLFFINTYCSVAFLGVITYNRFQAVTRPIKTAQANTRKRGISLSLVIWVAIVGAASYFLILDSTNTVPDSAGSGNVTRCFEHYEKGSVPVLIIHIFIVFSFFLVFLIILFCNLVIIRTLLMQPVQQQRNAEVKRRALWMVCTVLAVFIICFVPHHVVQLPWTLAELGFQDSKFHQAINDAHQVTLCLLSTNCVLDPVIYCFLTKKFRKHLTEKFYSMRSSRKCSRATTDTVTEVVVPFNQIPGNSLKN
In assay [3] the target is Protein kinase C, PKC; classical/novel (Homo sapiens) (UniProt O94806+P17252+P05129+Q05655+P05771+Q02156+P24723+Q15139+Q04759). The assay is described as follows: Inhibition of PDBu activated protein kinase C at 100 nM. The format is protein assay.
For assay [4], the target named is T1, 5-hydroxytryptamine receptor 1A (Homo sapiens, UniProt P08908).
T1 sequence (P08908 whole entry): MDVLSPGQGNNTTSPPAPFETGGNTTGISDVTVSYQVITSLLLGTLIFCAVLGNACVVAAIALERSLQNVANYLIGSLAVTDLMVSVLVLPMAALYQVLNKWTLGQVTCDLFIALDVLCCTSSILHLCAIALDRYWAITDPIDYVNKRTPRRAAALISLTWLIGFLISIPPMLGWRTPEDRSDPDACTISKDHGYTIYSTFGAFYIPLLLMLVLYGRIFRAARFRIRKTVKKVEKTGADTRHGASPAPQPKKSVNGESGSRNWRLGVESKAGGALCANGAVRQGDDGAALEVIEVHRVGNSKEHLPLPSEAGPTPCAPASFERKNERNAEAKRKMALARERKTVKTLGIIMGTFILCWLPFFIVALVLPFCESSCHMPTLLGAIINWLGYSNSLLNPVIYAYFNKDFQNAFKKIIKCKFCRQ
In words: Agonistic activity at cloned human 5HT1A receptor expressed in CHO cells by inhibition of forskolin-induced cAMP production. The format is functional, cell-based.

Assay [5] deals with T2, Endothelin-1 receptor (Homo sapiens) (UniProt P25101).
T2 sequence (whole entry): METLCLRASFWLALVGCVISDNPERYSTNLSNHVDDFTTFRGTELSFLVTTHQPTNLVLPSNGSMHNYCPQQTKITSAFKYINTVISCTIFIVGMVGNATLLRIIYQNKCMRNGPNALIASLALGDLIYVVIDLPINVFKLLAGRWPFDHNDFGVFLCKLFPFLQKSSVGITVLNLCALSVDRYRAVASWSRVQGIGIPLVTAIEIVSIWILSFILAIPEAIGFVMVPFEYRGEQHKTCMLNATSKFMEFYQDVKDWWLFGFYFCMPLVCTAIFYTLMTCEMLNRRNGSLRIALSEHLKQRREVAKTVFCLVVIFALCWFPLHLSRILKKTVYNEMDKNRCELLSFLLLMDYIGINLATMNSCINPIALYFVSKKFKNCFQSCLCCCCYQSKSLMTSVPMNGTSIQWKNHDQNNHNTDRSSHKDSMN
The assay is described as follows: Inhibition of human recombinant endothelin 1 receptor at 10 uM.

Assay [6] has as its target T3, Atrial natriuretic peptide receptor 1 (Homo sapiens) (UniProt P16066).
T3 sequence (whole entry): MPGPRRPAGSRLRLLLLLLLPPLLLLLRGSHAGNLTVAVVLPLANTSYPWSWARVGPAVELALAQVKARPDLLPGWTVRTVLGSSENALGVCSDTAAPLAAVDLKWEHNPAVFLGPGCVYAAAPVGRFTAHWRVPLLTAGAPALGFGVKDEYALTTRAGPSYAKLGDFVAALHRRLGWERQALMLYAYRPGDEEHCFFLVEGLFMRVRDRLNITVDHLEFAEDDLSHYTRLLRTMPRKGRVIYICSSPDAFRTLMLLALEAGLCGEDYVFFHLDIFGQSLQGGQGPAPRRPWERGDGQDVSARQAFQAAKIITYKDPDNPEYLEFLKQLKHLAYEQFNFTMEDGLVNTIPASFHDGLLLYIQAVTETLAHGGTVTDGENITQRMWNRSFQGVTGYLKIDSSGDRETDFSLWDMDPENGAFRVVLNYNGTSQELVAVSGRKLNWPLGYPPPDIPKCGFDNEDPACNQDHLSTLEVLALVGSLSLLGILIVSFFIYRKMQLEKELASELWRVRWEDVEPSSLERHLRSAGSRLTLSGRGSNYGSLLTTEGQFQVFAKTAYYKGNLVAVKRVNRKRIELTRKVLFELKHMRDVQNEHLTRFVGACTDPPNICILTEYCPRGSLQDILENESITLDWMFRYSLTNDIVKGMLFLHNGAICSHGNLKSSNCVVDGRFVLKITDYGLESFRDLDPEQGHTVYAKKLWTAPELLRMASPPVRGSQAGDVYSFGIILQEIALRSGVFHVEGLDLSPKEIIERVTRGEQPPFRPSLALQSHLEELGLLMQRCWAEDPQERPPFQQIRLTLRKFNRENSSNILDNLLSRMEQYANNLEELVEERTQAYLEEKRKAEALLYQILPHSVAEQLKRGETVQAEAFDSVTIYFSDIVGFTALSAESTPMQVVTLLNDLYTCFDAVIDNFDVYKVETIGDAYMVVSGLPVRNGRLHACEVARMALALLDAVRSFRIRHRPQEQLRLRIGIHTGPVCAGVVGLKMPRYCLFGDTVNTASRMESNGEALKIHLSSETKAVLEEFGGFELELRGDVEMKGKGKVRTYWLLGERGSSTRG
In words: Inhibition of ANP A at 100 nM.

For another assay, the species on record is Homo sapiens. The assay is described as follows: Inhibition of inositol triphosphate IP3 at 1 nM. The class given is functional.
Assay [7] concerns the target Leukotriene B4 receptor (Homo sapiens) (UniProt Q9NPC1+Q15722). In words: Inhibition of leukotriene B4 at 100 nM. The class given is protein assay.

Chain of Leukotriene B4 receptor (Homo sapiens) (Q15722 whole entry, looked up): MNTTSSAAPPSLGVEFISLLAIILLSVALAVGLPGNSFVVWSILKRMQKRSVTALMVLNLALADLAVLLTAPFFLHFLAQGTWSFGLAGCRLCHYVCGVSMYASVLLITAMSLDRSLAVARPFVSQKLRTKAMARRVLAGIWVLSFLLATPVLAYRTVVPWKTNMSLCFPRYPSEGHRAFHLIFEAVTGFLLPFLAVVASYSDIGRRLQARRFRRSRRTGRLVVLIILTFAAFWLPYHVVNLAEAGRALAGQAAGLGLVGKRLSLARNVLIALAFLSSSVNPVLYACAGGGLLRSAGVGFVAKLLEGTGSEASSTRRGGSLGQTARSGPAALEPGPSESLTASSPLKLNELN
Chain of Leukotriene B4 receptor (Homo sapiens) (Q9NPC1 whole entry, looked up): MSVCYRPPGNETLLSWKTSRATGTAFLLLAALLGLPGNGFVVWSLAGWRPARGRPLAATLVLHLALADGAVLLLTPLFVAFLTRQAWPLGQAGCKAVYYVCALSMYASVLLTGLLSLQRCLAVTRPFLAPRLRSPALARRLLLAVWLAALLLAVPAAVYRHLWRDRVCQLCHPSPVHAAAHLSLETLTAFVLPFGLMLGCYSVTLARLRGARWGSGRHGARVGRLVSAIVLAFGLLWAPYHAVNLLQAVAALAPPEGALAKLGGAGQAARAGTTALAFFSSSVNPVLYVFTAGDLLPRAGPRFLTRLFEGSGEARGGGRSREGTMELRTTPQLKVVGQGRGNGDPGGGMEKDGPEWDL

As to `C[C@H](N)Cn1ncc2ccc(O)cc21`, the inhibition in assay [1] was 10.4%; in assay [2] it was 24.8%; in assay [3] it was 11.3%; in assay [5], -6.96%; in assay [6], 3.01%; in the assay filed under Homo sapiens it was 6.53%. The inhibition in assay [7] stood at 15.8%. In assay [4], the 50% effective concentration (EC50) worked out at 1460 nM.
